The values that follow come from ChEMBL document CHEMBL5725743, “Benzamide imidazopyrazine Btk inhibitors” (2018).

This assay addresses Tyrosine-protein kinase BTK (Homo sapiens, UniProt Q06187). Description: Btk Enzyme Activity Assay: BTK enzymatic activity was determined with the LANCE (Lanthanide Chelate Excite) TR-FRET (Time-resolved fluorescence resonance energy transfer) assay. […] Phosphorylation reactions were allowed to proceed for 120 minutes. […] After 60 minutes incubation with detection reagents, reaction plates were read on a PerkinElmer EnVision plate reader using standard TR-FRET protocol. […] IC50 values were determined by 4 parameter robust fit of TR-FRET ratio values vs. (Log10)) compound concentrations.

Sequence of Tyrosine-protein kinase BTK (Q06187 whole entry): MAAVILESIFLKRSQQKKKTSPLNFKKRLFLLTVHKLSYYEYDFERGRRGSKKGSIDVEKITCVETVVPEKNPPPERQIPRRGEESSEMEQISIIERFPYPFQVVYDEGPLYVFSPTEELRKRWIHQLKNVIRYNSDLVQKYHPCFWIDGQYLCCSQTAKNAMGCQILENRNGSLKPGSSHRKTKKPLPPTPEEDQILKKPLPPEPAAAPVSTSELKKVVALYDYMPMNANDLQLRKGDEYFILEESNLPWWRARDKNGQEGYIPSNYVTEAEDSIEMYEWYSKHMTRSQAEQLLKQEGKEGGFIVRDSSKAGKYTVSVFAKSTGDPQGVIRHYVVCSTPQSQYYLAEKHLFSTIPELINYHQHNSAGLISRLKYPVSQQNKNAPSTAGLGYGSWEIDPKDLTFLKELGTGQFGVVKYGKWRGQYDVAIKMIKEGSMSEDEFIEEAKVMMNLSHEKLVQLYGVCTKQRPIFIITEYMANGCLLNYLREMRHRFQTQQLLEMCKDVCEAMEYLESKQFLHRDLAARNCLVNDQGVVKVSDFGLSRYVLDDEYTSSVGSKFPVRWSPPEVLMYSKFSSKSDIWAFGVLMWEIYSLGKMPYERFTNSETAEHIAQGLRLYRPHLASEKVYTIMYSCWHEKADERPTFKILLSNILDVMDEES

Take `Nc1nccn2c([C@@H]3CC[C@@H](CC(=O)O)C3)nc(-c3ccc(C(=O)Nc4cc(C(F)(F)F)ccn4)cc3)c12`: the IC50 amounted to 0.16 nM.
